Test results taken from patent US8889874B2, “Imidazolone-chalcone derivatives as potential anticancer agent and process for the preparation thereof” (Council of Scientific and Industrial Research, priority 2010, dated 2014).
Like-named read-outs stand apart in the source and are kept apart here.

Tests used:
Assay type in all cases: cell-based, human
[1] = test system: Prostate cancer cell lines; assay: NCI anticancer screen, SRB assay, panel summary
Method in brief: (§1)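 Sulforhodamine B protein assay read cell growth after 48 h of continuous compound exposure. Dose-response curves per cell line used at least five 10-fold-diluted concentrations, within a panel of fifty-three human lines from nine tumour types.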

Renal cancer cell lines = assay: NCI anticancer screen, SRB assay, panel summary; conditions: Homo sapiens
Method in brief: as §1

[2] = test system: Leukemia cancer cell lines; assay: NCI anticancer screen, SRB assay, panel summary; conditions: Homo sapiens
Method in brief: as §1

[3] = test system: Ovarian cancer cell lines; assay: NCI anticancer screen, SRB assay, panel summary; conditions: Homo sapiens
Method in brief: as §1

Breast cancer cell lines = assay: NCI anticancer screen, SRB assay, panel summary; conditions: Homo sapiens
Method in brief: as §1

[4] = test system: Melanoma cancer cell lines; assay: NCI anticancer screen, SRB assay, panel summary; conditions: for GI50: Homo sapiens
Method in brief: as §1

CNS cancer cell lines = assay: NCI anticancer screen, SRB assay, panel summary; conditions: for GI50: Homo sapiens
Method in brief: as §1

[5] = test system: Non-small cell lung cancer cell lines; assay: NCI anticancer screen, SRB assay, panel summary; conditions: Homo sapiens
Method in brief: as §1

Colon cancer cell lines = assay: NCI anticancer screen, SRB assay, panel summary; conditions: for GI50: Homo sapiens
Method in brief: as §1

786-0 (renal) = assay: NCI anticancer screen, SRB assay, 48 h; conditions: Homo sapiens
Method in brief: as §1

PC-3 (prostate) = assay: NCI anticancer screen, SRB assay, 48 h; conditions: Homo sapiens
Method in brief: as §1

SF-268 (CNS) = assay: NCI anticancer screen, SRB assay, 48 h; conditions: Homo sapiens
Method in brief: as §1

SK-MEL-5 (melanoma) = assay: NCI anticancer screen, SRB assay, 48 h; conditions: Homo sapiens
Method in brief: as §1

HCT-15 (colon) = assay: NCI anticancer screen, SRB assay, 48 h; conditions: Homo sapiens
Method in brief: as §1

U251 (CNS) = assay: NCI anticancer screen, SRB assay, 48 h; conditions: Homo sapiens
Method in brief: as §1

MDA-MB-435 (melanoma) = assay: NCI anticancer screen, SRB assay, 48 h; conditions: Homo sapiens
Method in brief: as §1

HS 578T (breast) = assay: NCI anticancer screen, SRB assay, 48 h; conditions: Homo sapiens
Method in brief: as §1

A498 (renal) = assay: NCI anticancer screen, SRB assay, 48 h; conditions: Homo sapiens
Method in brief: as §1

[6] = test system: NCI-H460 (non-small cell lung); assay: NCI anticancer screen, SRB assay, 48 h; conditions: Homo sapiens
Method in brief: as §1

OVCAR-5 (ovarian) = assay: NCI anticancer screen, SRB assay, 48 h; conditions: Homo sapiens
Method in brief: as §1

SN12C (renal) = assay: NCI anticancer screen, SRB assay, 48 h; conditions: Homo sapiens, SN12C
Method in brief: as §1

HCC-2998 (colon) = assay: NCI anticancer screen, SRB assay, 48 h; conditions: Homo sapiens
Method in brief: as §1

[7] = test system: HOP-92 (non-small cell lung); assay: NCI anticancer screen, SRB assay, 48 h; conditions: Homo sapiens
Method in brief: as §1

TK-10 (renal) = assay: NCI anticancer screen, SRB assay, 48 h; conditions: Homo sapiens
Method in brief: as §1

MDA-MB-231/ATCC (breast) = assay: NCI anticancer screen, SRB assay, 48 h; conditions: Homo sapiens
Method in brief: as §1

LOX IMVI (melanoma) = assay: NCI anticancer screen, SRB assay, 48 h; conditions: Homo sapiens
Method in brief: as §1

[8] = test system: K-562 (leukemia cell line); assay: NCI anticancer screen, SRB assay, 48 h; conditions: Homo sapiens
Method in brief: as §1

SF-295 (CNS) = assay: NCI anticancer screen, SRB assay, 48 h; conditions: Homo sapiens
Method in brief: as §1

SW-620 (colon) = assay: NCI anticancer screen, SRB assay, 48 h; conditions: Homo sapiens
Method in brief: as §1

BT-549 (breast) = assay: NCI anticancer screen, SRB assay, 48 h; conditions: Homo sapiens
Method in brief: as §1

SF-539 (CNS) = assay: NCI anticancer screen, SRB assay, 48 h; conditions: Homo sapiens
Method in brief: as §1

MCF7 (breast) = assay: NCI anticancer screen, SRB assay, 48 h; conditions: Homo sapiens
Method in brief: as §1

[9] = 48 h exposure, SRB, read-out: GI50
[10] = read-out: pGI50 (-log of molar concentration causing 50% inhibition of net cell growth) (converted)

SMILES: COc1cc(/C=C/C(=O)c2cccc(-n3cc(-c4ccccc4)[nH]c3=O)c2)cc(OC)c1OC [5a, 4-phenyl-1-3-[(E)-3-(3,4,5-trimethoxyphenyl)-2-propenoyl]phenyl-2,3-dihydro-1H-2-imidazolone]
- GI50 ([1]; Homo sapiens, log of concentration in mol/L causing 50% inhibition of net cell growth, read-out: mean graph midpoint (MG_MID) of Log10 GI50 (converted)): 3240 nM
- LC50 ([1]; Homo sapiens, log of concentration leading to 50% net cell death, read-out: mean graph midpoint (MG_MID) of Log10 LC50 (converted)): ≥ 100000 nM
- mean graph midpoint (MG_MID) of Log10 TGI ([1]; log of concentration resulting in total inhibition of net cell growth): 4.68
- GI50 (Renal cancer cell lines; Renal panel, log of concentration in mol/L causing 50% inhibition of net cell growth, read-out: mean graph midpoint (MG_MID) of Log10 GI50 (converted)): 1910 nM
- LC50 (Renal cancer cell lines; Renal panel, log of concentration leading to 50% net cell death, read-out: mean graph midpoint (MG_MID) of Log10 LC50 (converted)): 17000 nM
- GI50 (Renal cancer cell lines; eight renal cancer cell lines, exposure at least 48 hrs, read-out: GI50, range over the panel): 1380 to 3020 nM
- GI50 ([2]; Leukemia panel, log of concentration in mol/L causing 50% inhibition of net cell growth, read-out: mean graph midpoint (MG_MID) of Log10 GI50 (converted)): 562 nM
- LC50 ([2]; Leukemia panel, log of concentration leading to 50% net cell death, read-out: mean graph midpoint (MG_MID) of Log10 LC50 (converted)): ≥ 100000 nM
- GI50 ([2]; two leukemia cancer cell lines (RPMI-8226 and K-562), exposure at least 48 hrs, read-out: GI50, range over the panel): 500 to 620 nM
- GI50 ([3]; Ovarian panel, log of concentration in mol/L causing 50% inhibition of net cell growth, read-out: mean graph midpoint (MG_MID) of Log10 GI50 (converted)): 1740 nM
- LC50 ([3]; Ovarian panel, log of concentration leading to 50% net cell death, read-out: mean graph midpoint (MG_MID) of Log10 LC50 (converted)): 42700 nM
- GI50 ([3]; six ovarian cancer cell lines, exposure at least 48 hrs, read-out: GI50, range over the panel): 1100 to 3270 nM
- GI50 (Breast cancer cell lines; Breast panel, log of concentration in mol/L causing 50% inhibition of net cell growth, read-out: mean graph midpoint (MG_MID) of Log10 GI50 (converted)): 1580 nM
- LC50 (Breast cancer cell lines; Breast panel, log of concentration leading to 50% net cell death, read-out: mean graph midpoint (MG_MID) of Log10 LC50 (converted)): 38000 nM
- GI50 (Breast cancer cell lines; five breast cancer cell lines, exposure at least 48 hrs, read-out: GI50, range over the panel): 310 to 3410 nM
- GI50 ([4]; Melanoma panel, log of concentration in mol/L causing 50% inhibition of net cell growth, read-out: mean graph midpoint (MG_MID) of Log10 GI50 (converted)): 1320 nM
- GI50 ([4]; nine melanoma cancer cell lines, exposure at least 48 hrs, read-out: GI50, range over the panel): 480 to 2060 nM
- mean graph midpoint (MG_MID) of Log10 LC50 ([4]; Melanoma panel, log of concentration leading to 50% net cell death): 5.02
- mean graph midpoint (MG_MID) of Log10 LC50 (CNS cancer cell lines; CNS panel, log of concentration leading to 50% net cell death): 5.13
- GI50 (CNS cancer cell lines; CNS panel, log of concentration in mol/L causing 50% inhibition of net cell growth, read-out: mean graph midpoint (MG_MID) of Log10 GI50 (converted)): 1860 nM
- GI50 (CNS cancer cell lines; six CNS cancer cell lines, exposure at least 48 hrs, read-out: GI50, range over the panel): 630 to 4470 nM
- GI50 ([5]; Non-small cell lung panel, log of concentration in mol/L causing 50% inhibition of net cell growth, read-out: mean graph midpoint (MG_MID) of Log10 GI50 (converted)): 3090 nM
- LC50 ([5]; Non-small cell lung panel, log of concentration leading to 50% net cell death, read-out: mean graph midpoint (MG_MID) of Log10 LC50 (converted)): 32400 nM
- GI50 ([5]; nine non-small cell lung cancer cell lines, exposure at least 48 hrs, read-out: GI50, range over the panel): 950 to 14600 nM
- mean graph midpoint (MG_MID) of Log10 LC50 (Colon cancer cell lines; Colon panel, log of concentration leading to 50% net cell death): 5.23
- GI50 (Colon cancer cell lines; Colon panel, log of concentration in mol/L causing 50% inhibition of net cell growth, read-out: mean graph midpoint (MG_MID) of Log10 GI50 (converted)): 832 nM
- GI50 (Colon cancer cell lines; seven colon cancer cell lines, exposure at least 48 hrs, read-out: GI50, range over the panel): 330 to 1510 nM
- GI50 (786-0 (renal); [9]): 1380 nM
- GI50 (786-0 (renal); [10]): 1380 nM
- GI50 (PC-3 (prostate); PC-3, read-out: pGI50 (-log of molar concentration causing 50% inhibition of net cell growth) (converted)): 3240 nM
- GI50 (PC-3 (prostate); one prostate cancer cell line (PC-3), exposure at least 48 hrs, read-out: GI50): 3260 nM
- GI50 (SF-268 (CNS); [9]): 1920 nM
- GI50 (SF-268 (CNS); [10]): 1910 nM
- GI50 (SK-MEL-5 (melanoma); [9]): 1400 nM
- GI50 (SK-MEL-5 (melanoma); [10]): 1410 nM
- GI50 (HCT-15 (colon); [9]): 1130 nM
- GI50 (HCT-15 (colon); [10]): 1120 nM
- GI50 (U251 (CNS); U-251, 48 h exposure, SRB, read-out: GI50): 630 nM
- GI50 (U251 (CNS); U-251, read-out: pGI50 (-log of molar concentration causing 50% inhibition of net cell growth) (converted)): 631 nM
- GI50 (MDA-MB-435 (melanoma); [9]): 1200 nM
- GI50 (MDA-MB-435 (melanoma); [10]): 1200 nM
- GI50 (HS 578T (breast); [9]): 3410 nM
- GI50 (HS 578T (breast); [10]): 3390 nM
- GI50 (A498 (renal); [9]): 2650 nM
- GI50 (A498 (renal); [10]): 2630 nM
- GI50 [6, 9]: 1400 nM
- GI50 [6, 10]: 1410 nM
- GI50 (OVCAR-5 (ovarian); [9]): 1880 nM
- GI50 (OVCAR-5 (ovarian); [10]): 1860 nM
- GI50 (SN12C (renal); SN 12C, read-out: pGI50 (-log of molar concentration causing 50% inhibition of net cell growth) (converted)): 2090 nM
- GI50 (SN12C (renal); [9]): 2090 nM
- GI50 (HCC-2998 (colon); [9]): 1260 nM
- GI50 (HCC-2998 (colon); [10]): 1260 nM
- GI50 [7, 9]: 10800 nM
- GI50 [7, 10]: 10700 nM
- GI50 (TK-10 (renal); [9]): 3020 nM
- GI50 (TK-10 (renal); [10]): 3020 nM
- GI50 (MDA-MB-231/ATCC (breast); [9]): 2170 nM
- GI50 (MDA-MB-231/ATCC (breast); [10]): 2190 nM
- GI50 (LOX IMVI (melanoma); [9]): 480 nM
- GI50 (LOX IMVI (melanoma); [10]): 479 nM
- GI50 ([8]; K562, 48 h exposure, SRB, read-out: GI50): 500 nM
- GI50 ([8]; K562, read-out: pGI50 (-log of molar concentration causing 50% inhibition of net cell growth) (converted)): 501 nM
- GI50 (SF-295 (CNS); [9]): 1900 nM
- GI50 (SF-295 (CNS); [10]): 1910 nM
- GI50 (SW-620 (colon); [9]): 390 nM
- GI50 (SW-620 (colon); [10]): 389 nM
- GI50 (BT-549 (breast); [9]): 1930 nM
- GI50 (BT-549 (breast); [10]): 1950 nM
- GI50 (SF-539 (CNS); [9]): 1680 nM
- GI50 (SF-539 (CNS); [10]): 1700 nM
- GI50 (MCF7 (breast); [9]): 310 nM
- GI50 (MCF7 (breast); [10]): 309 nM
